{
  "source": "patent US10973896B2",
  "about": "“Treatment or prevention of melanoma using photochemical internalization of a melanoma antigen” (PCI Biotech AS, priority 2014, dated 2021)",
  "assay_type_in_all_cases": "in vivo, C57BL/6 mice",
  "key": {"[1]": {"system": "SIINFEKL-specific CD8 T cells", "experiment": "Intradermal PCI immunisation, antigen-specific CD8 T cells in blood by pentamer flow cytometry (Example 1)", "settings": "10 μg OVA with or without 100 μg TPCS2a i.d., skin illuminated 18 hours later; FIG. 1A", "experimental": "C57BL/6 mice were immunised at 6-10 weeks of age. One day prior to immunisation, 10,000 OT-I spleen and lymph node cells were administered by intravenous injection into the recipient C57BL/6 mice (see Example 2). The next day, the fur was shaven off the abdominal region and 100 μl of the vaccine preparations were injected intradermally. The doses of OVA and TPCS2a were 10 μg and 100 μg, respectively. After 18 hours, the anaesthetised mice were placed on the light source for six minutes illumination (4.86 J/cm2) for activation of TPCS2a.\nThe frequency of antigen-specific CD8 T cells was monitored in blood and spleen by flow cytometry using H-2K^b/SIINFEKL Pro5 pentamer (Proimmune, Oxford, UK). Cell-surface expression of CD4, CD8, and CD44 and intracellular production of IFN-γ was analysed by flow cytometry after Fc-receptor blocking with anti-CD16/32. The intracellular staining was after overnight incubation at 37° C. with 0.1 μg SIINFEKL. Brefeldin A (2.5 μg/ml) was added during the last 4 hours. The cells were fixed with 4% formaldehyde for 10 minutes, permeabilised in 0.1% NP40 for 3 minutes, and stained with anti-IFN-γ for 35 minutes. […] Acquisition was performed on FACSCanto (BD Biosciences, San Jose, USA) and data analysed with FlowJo 8.5.2 (Tree Star, Inc., Ashland, Oreg.). […] Supernatants were collected after 24-72 hours and analysed using cytokine ELISA kits (eBioscience)."}, "[2]": {"system": "OVA-expressing B16 melanoma cells", "experiment": "Prophylactic vaccination against intradermal melanoma challenge (Example 1)", "settings": "B16 cells intradermally five days after immunisation; FIG. 1D", "protocol": "C57BL/6 mice were immunised at 6-10 weeks of age. […] The next day, the fur was shaven off the abdominal region and 100 μl of the vaccine preparations were injected intradermally. The doses of OVA and TPCS2a were 10 μg and 100 μg, respectively.\nIf not otherwise stated, C57BL/6 mice were vaccinated as described above 4-5 days prior to, or 7-8 days after, the tumour challenge with 500,000 OVA-expressing B16-melanoma cells injected intradermally into one of the mouse flanks; 10,000 OT-I cells were transferred intravenously to the recipient one day before prophylactic vaccination, or one day before B16 injection in the therapeutic vaccination model. […] The tumour growth was monitored by measuring the size of the neoplasm with a calliper."}, "[3]": {"system": "OVA-expressing B16 melanoma cells", "experiment": "Therapeutic vaccination of melanoma-bearing mice (Example 1)", "settings": "immunised after appearance of tumours under the skin; FIG. 2A"}, "[4]": {"system": "OVA-expressing B16 cells", "experiment": "Metastatic potential of melanoma, lung melanoma spots after intravenous B16 (Example 1)", "settings": "B16 melanoma cells given intravenously after immunisation; FIG. 4", "experimental": "C57BLJ6 mice were vaccinated as above with OVA with or without TPSC2a and challenged four days later with 500,000 OVA-expressing B16 cells given by intravenous injection. On day 19, mice were euthanized and spleens and lungs were harvested. The lungs were analysed by counting melanoma spots as a measure for metastasis. Spleen cells were analysed by flow cytometry for CD8 T-cell activation as described above."}, "[5]": {"system": "CD8, CD44 and IFN-γ positive cells", "experiment": "Intracellular IFN-γ staining after SIINFEKL re-stimulation (Example 2)", "experimental": "The frequency of OVA-specific CD8 T-cells in blood was monitored by staining the cells with anti-CD8 antibody and H-2K^b/SIINFEKL ProS pentamer (Proimmune, Oxford, UK) for analysis by flow cytometry. The activation status of the cells was further analysed by testing the expression of CD44 and CD69 by flow cytometry. Intracellular staining for IFN-γ was done after overnight stimulation of splenocytes in 24-well plates with the CD8 epitope OVA257-264 (SIINFEKL) at 37 ° C. Brefeldin A was added during the last 4 hours. The cells were then washed and fixed with 4% formaldehyde in PBS for 10 min on ice. Anti-CD16/32 was added to block unspecific binding to Fc receptors. The cells were then permeabilised with 0.1% NP40 in PBS for 3 min and washed before staining with anti-IFN-γ, anti-CD8 and ant-CD44 antibodies (eBioscience or BD Pharmingen). The cells were acquired using FACSCanto (BD Biosciences, San Jose, USA) and analysed using FlowJo 8.5.2 software (Tree Star, Inc., Ashland, Oreg.)."}, "[6]": {"system": "splenocytes re-stimulated with SIINFEKL", "experiment": "IL-2 and IFN-γ ELISA of re-stimulated splenocytes (Example 2)", "settings": "day 11 splenocytes, 10 μg OVA alone, or with PCI at 25 μg TPCS2a", "experimental": "Alternatively, 2×10^5 splenocytes were re-stimulated in 96-well plates with OVA protein or the SIINFEKL. After 24 and 72 hours, supernatants were collected and analysed for IL-2 or IFN-γ by ELISA (eBioscience—performed according to the manufacturer's instructions)."}},
  "data": [
    {"substance": "OVA: Chicken ovalbumin protein, model antigen expressed by the transfected B16 melanoma cells", "values": [
      {"measurement": "frequency of pentamer (H2K^d-SIINFEKL)-binding CD8 T cells in blood", "setting": "[1]", "result": "No or little so-called cross priming"},
      {"measurement": "mice that developed tumours", "setting": "[2]", "result": "Fifty"},
      {"measurement": "growth of established tumours", "setting": "[3]", "result": "grew readily"},
      {"measurement": "melanoma spots (lung metastases) on the lung, average", "setting": "[4]", "result": "approx. 50"},
      {"measurement": "responders for IFN-γ production in splenocytes (better responders among mice tested)", "setting": "[5]; day 11, 10 μg OVA alone, or OVA and PCI (ten mice, 25 and 250 μg TPCS2a)", "result": "weak responders in all mice tested"},
      {"measurement": "increase in frequency of IFN-γ-producing CD44-positive CD8 cells compared to control mice with OT-I transfer only", "setting": "[5]; day 14 PBMCs, OVA alone, or PCI with illumination at 2 hours", "result": 4, "unit": "fold"},
      {"measurement": "frequencies of CD44-positive IFN-γ producing cells in splenocytes", "setting": "[5]; day 23, FIG. 7E right panel", "result": "barely detectable frequencies"},
      {"measurement": "IL-2 secretion by ELISA", "setting": "[6]; 24 hours", "result": "weak but clearly measurable"},
      {"measurement": "IFN-γ secretion by ELISA", "setting": "[6]; 72 hours", "result": "not IFN-γ secretion"}
    ]}
  ]
}
